The values that follow come from ChEMBL document CHEMBL2203088, “Design, synthesis and molecular simulation studies of dihydrostilbene derivatives as potent tyrosinase inhibitors” (Bioorg Med Chem Lett, 2012).

Each structure is given as a SMILES string.

The target of this experiment is T1, Tyrosinase (Agaricus bisporus, UniProt O42713).
T1 sequence (O42713 whole entry): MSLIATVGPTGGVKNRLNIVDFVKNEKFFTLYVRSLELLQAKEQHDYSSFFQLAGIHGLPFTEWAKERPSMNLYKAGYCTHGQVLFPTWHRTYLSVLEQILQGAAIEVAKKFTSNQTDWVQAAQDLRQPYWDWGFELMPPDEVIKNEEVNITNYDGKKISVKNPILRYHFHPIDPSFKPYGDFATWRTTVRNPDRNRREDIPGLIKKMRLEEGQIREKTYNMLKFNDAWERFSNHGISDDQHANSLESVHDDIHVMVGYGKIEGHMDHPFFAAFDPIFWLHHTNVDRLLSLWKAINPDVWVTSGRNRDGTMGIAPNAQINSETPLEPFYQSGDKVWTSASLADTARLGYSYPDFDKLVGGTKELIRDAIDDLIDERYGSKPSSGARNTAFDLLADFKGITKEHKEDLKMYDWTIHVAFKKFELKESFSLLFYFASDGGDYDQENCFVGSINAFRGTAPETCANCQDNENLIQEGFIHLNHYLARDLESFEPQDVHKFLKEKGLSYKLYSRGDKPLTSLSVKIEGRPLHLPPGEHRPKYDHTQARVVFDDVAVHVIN
The experiment can be described thus: Inhibition of mushroom tyrosinase using L-DOPA as substrate after 10 mins.
Compound `Oc1ccc(CCc2ccc(O)cc2O)cc1` registered an IC50 of 8.44 µM.

With `Oc1ccc(CCc2ccc(F)cc2)c(O)c1`, the IC50 came out at 49.6 µM.

Turning to `Oc1ccc(CCc2ccccc2Cl)c(O)c1`, inhibition was half-maximal at 33.8 µM (IC50).

Compound `COc1ccc(CCc2ccc(O)cc2O)cc1` came in with an IC50 of 31.6 µM.

On to `Oc1ccc(CCc2ccccc2)c(O)c1`, for which inhibition was half-maximal at 30.6 µM (IC50).
